Assay results reported in article PMC10447463, “Data-mining unveils structure–property–activity correlation of viral infectivity enhancing self-assembling peptides” (Nature Communications, 2023).
Read-outs that look alike come from different tables or passages of the source.

Key:
[1] = Turbidity, derived count rate of scattered light; assay type: physicochemical; details: for Log Count Rate: log of derived count rate; for Count Rate / Zeta Count Rate / kcps: derived count rate of scattered light
Method in brief: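 Samples: 1 mg/mL in PBS pH 7.4 (from DMSO), 1 d at RT, then diluted in 1 mM KCl immediately before measurement. Triplicates, two independent runs averaged.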

[2] = assay type: physicochemical
Method in brief: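 Preformed peptide fibrils (1 mg/mL) mixed with 50 µM ThT in PBS, 15 min at RT, fluorescence ex 440/em 488 nm versus PBS blank, triplicates. Zeta potential: peptides at 1 mg/mL in PBS pH 7.4, aged 1 d at RT, diluted in 1 mM KCl, Smoluchowski from electrophoretic mobility.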

[3] = category 1 or 0 from count rate, key not given
[4] = mean, std deviation in next column
[5] = mean, std deviation in separate column
[6] = ThT fluorescence relative to blank (42.1851851851852 a.u.)
[7] = ThT fluorescence relative to blank, blank = 42.1851851851852
[8] = relative to blank 42.1851851851852 a.u.

Sequence	Zeta Count Rate Category ([1]; category 1 / 0, no key given)	Zeta Count Rate Category [1, 3]	Zeta Count Rate / kcps [1]	Zeta Count Rate / kcps [1, 4]	Zeta Count Rate / kcps [1, 5]	Tht rel to blank (42.1851851851852) [2, 6]	Tht rel to blank (42.1851851851852) [2, 7]	Tht category (> 1.5 to blank = +) ([2]; category 1/0)	Tht rel to blank (42.1851851851852) [2, 8]	further results
QCKFKQFFNMWQ [CK10]	1	1	18911.36667 kcps	18911.36667 kcps	18911.36667 kcps	25.38	25.38	1 (ThT. Cat is 1, if Rel. ThT >2)	25.38	Log Count Rate ([1]; Fig S8 panels B, D): 4.277; Count Rate ([1]; Fig S8 panels B, D, turbidity): 18911.4
QCKIKIQI [CK3]	–	1	–	12426.83333 kcps	12426.83333 kcps	2.039	–	1 (ThT. Cat is 1, if Rel. ThT >2)	2.039	Zeta Count Rate Category ([1]; category 1/0, no key printed): 1
QCKIKIQINM [CK2]	–	1	–	9524 kcps	9524 kcps	2.548	–	1 (ThT. Cat is 1, if Rel. ThT >2)	2.548	Zeta Count Rate Category ([1]; category 1/0, no key printed): 1
QCKIKIQINMWQ [EF-C opt]	–	1	–	8271 kcps	8271 kcps	9.054	–	1 (ThT. Cat is 1, if Rel. ThT >2)	9.054	Log Count Rate ([1]; Fig S8 panels A, C, asymmetric log errors): 3.918; Log Count Rate ([1]; Fig S8 panels B, D): 3.918; Count Rate ([1]; Fig S8 panels B, D, turbidity): 8271.27; Zeta Count Rate Category ([1]; category 1/0, no key printed): 1
QCKIKQII [CK6]	1	1	301 kcps	301 kcps	301 kcps	2.961	2.961	1 (ThT. Cat is 1, if Rel. ThT >2)	2.961	–
QCKIKQIINM [CK5]	1	1	20551.06667 kcps	20551.06667 kcps	20551.06667 kcps	23.32	23.32	1 (ThT. Cat is 1, if Rel. ThT >2)	23.32	–
RGDCKFKFQF [TM64/ CN15]	1	1	1338 kcps	1338 kcps	–	6.788	6.788	1 (ThT. Cat is 1, if Rel. ThT >2)	–	–
RGDCKIKIQINM [TM45]	–	1	–	1623 kcps	1623 kcps	1.835	–	0 (ThT-inactive (N-Fold <2))	1.835	Tht category (> 1.5 to blank = +) ([2]; FigS26): 0 (Tht category (> 1.5 to blank = +))
RGDKIKIQI	–	–	–	–	–	–	–	–	–	Log10 Count Rate ([1]; Log10 of derived count rate of scattered light (turbidity)): 2.474; Count Rate / kcps ([1]; derived count rate of scattered light at 633 nm, 173°, from zeta-potential measurement, 0.1 mg/mL in 1 mM KCl after 1 d at 1 mg/mL in PBS, turbidity / microscopic aggregation, mean of triplicate): 298 kcps; Log10 Count Rate ([1]; log10 of derived count rate of scattered light (turbidity)): 2.474; Log10 Count Rate ([1]; turbidity, Log10 of derived count rate of scattered light, Figure 3A source data): 2.474; Tht category (> 2 to blank = +) ([2]; Fig S10 panel D): 1 (ThT. Cat is 1, if Rel. ThT >2); Tht category (> 2 to blank = +) ([2]; FigS12 panel A): 1 (ThT. Cat is 1, if Rel. ThT >2); ThT Cat, ([2]; FigS12 panel B): 1 (ThT. Cat is 1, if Rel. ThT >2); ThT Cat, ([2]; ThT category, 1 if Rel. ThT >2): 1 (ThT. Cat is 1, if Rel. ThT >2); ThT Cat. ([2]; ThT fluorescence category, 1 if Rel. ThT >2): 1 (ThT. Cat is 1, if Rel. ThT >2); ThT Cat. / ThT-Fluorescence (categorical) ([2]; ThT-active if fluorescence at least twice the control): 1 (ThT. Cat is 1, if Rel. ThT >2)
RGDKIKIQI [MG14]	–	1	–	298.1 kcps	298.1 kcps	5.578	–	1 (ThT. Cat is 1, if Rel. ThT >2)	5.578	Tht category (> 1.5 to blank = +) ([2]; FigS26): 1 (Tht category (> 1.5 to blank = +))
RGDKIKIQIC [MG7/CN1]	–	1	–	7509 kcps	7509 kcps	19.76	–	1 (ThT. Cat is 1, if Rel. ThT >2)	19.76	Tht category (> 1.5 to blank = +) ([2]; FigS26): 1 (Tht category (> 1.5 to blank = +))
RGDSKIKIQIC [TM113 / RC11]	–	1	–	2699 kcps	–	13.8	–	–	–	–
